{
  "source": "patent US20260344670A1",
  "about": "“BIXLOZONE MIXTURES WITH PETHOXAMID” (FMC CORPORATION, priority 2022, published 2026)",
  "format_in_all_cases": "in vivo",
  "key": {"[1]": {"tested_on": "Abutilon theophrasti (ABUTH)", "experiment": "pre-emergence control of ABUTH in corn (efficacy, Colby synergy)", "description": "(§1) [formula] • where ppm=milligrams of active ingredient (=a.i.) per liter of spray mixture X=% action by component A using p ppm of active ingredient Y=% action by component B using q ppm of active ingredient. If the ratio R defined as the action actually observed (O) divided by the expected action (E) is >1 then the action of the combination is superadditive, i.e. there is a synergistic effect. For a more detailed description of the Colby formula, see Colby, S. R. “Calculating Synergistic and Antagonistic Responses of Herbicide Combination”, Weeds, Vol. 15, pages 20-22; 1967; see also Limpel et al., Proc. NEWCC 16:48-53 (1962).\n(§2) As used herein, rating timings correspond to the following: A1=weed assessment at BBCH 11-12; A2=4 weeks after the application; A3=when ZEAMX crop reaches BBCH 18 (row closure); and A4=BBCH 51-59 of the ZEAMX crop.\n(§3) The herbicidal compounds bixlozone and pethoxamid were applied in a variety of forms and at a variety of amounts, application rates, and normalities. Efficacy of the herbicidal compositions was evaluated with reference to a scale of 0% to 100% in comparison with untreated control plots. 0 means no damage to the harmful plants and 100 means complete destruction of the harmful plants. Plants per square meter is indicated by “pl/m^2”, and grams per hectare is indicated by “g/ha”. The acronym “EC” means emulsifiable concentrate (a liquid, homogenous formulation to be applied as an emulsion after dilution with water); “SC” means suspension concentrate (a stable suspension of active ingredient(s) with water as the fluid); “ZC” refers to a mixed formulation of CS and SC (a stable suspension of capsules and active ingredient(s) in a fluid, normally intended for dilution with water before use).\n(§4) Various forms, compositions, and mixtures of bixlozone and pethoxamid were applied to corn before emergence. […] There was equivalent efficacy for fixed rate of bixlozone combined with pethoxamid: 1200 or 900 g/ha. Efficacy was reduced when bixlozone rate decreased from 250 to 150 g/ha. […]"}, "[2]": {"tested_on": "Amaranthus retroflexus (AMARE)", "experiment": "pre-emergence control of AMARE in corn (efficacy, Colby synergy)", "description": "as §1, §2\n(§5) The herbicidal compounds bixlozone and pethoxamid were applied in a variety of forms and at a variety of amounts, application rates, and normalities. Efficacy of the herbicidal compositions was evaluated with reference to a scale of 0% to 100% in comparison with untreated control plots. 0 means no damage to the harmful plants and 100 means complete destruction of the harmful plants. Plants per square meter is indicated by “pl/m^2”, and grams per hectare is indicated by “g/ha”. […]"}, "[3]": {"tested_on": "Capsella bursa-pastoris (CAPBP)", "experiment": "pre-emergence control of CAPBP in corn (efficacy, Colby synergy)", "conditions": "bixlozone 375, pethoxamid 800, tank mix 375 + 800, premix 375 + 775 g/ha", "description": "as §1, §2, §5"}, "[4]": {"tested_on": "Chenopodium album (CHEAL)", "experiment": "pre-emergence control of CHEAL in corn (efficacy, Colby synergy)", "description": "as §1, §2, §3, §4"}, "[5]": {"tested_on": "Chenopodium hybridum (CHEHY)", "experiment": "pre-emergence control of CHEHY in corn (efficacy, Colby synergy)", "conditions": "bixlozone 375, pethoxamid 300, mixtures 375 + 300 g/ha", "description": "as §1, §2, §5"}, "[6]": {"tested_on": "Convolvulus arvensis (CONAR)", "experiment": "pre-emergence control of CONAR in corn (efficacy, Colby synergy)", "conditions": "bixlozone 375, pethoxamid 300, mixtures 375 + 300 g/ha", "description": "as §1, §2, §5"}, "[7]": {"tested_on": "Digitaria sanguinalis (DIGSA)", "experiment": "pre-emergence control of DIGSA in corn (efficacy, Colby synergy)", "conditions": "bixlozone 375, pethoxamid 1200, mixtures 375 + 1200 g/ha", "description": "as §1, §2, §5"}, "[8]": {"tested_on": "Echinochloa crus-galli (ECHCG)", "experiment": "pre-emergence control of ECHCG in corn (efficacy, Colby synergy)", "description": "as §1, §2, §5"}, "Lamium purpureum (LAMPU)": {"tested_on": "Lamium purpureum (LAMPU)", "experiment": "pre-emergence control of LAMPU in corn (efficacy, Colby synergy)", "conditions": "bixlozone 375, pethoxamid 300, mixtures 375 + 300 g/ha", "description": "as §1, §2, §5"}, "[9]": {"tested_on": "Matricaria chamomilla (MATCH)", "experiment": "pre-emergence control of MATCH in corn (efficacy, Colby synergy)", "description": "as §1, §2, §3, §4"}, "[10]": {"tested_on": "Mercurialis annua (MERAN)", "experiment": "pre-emergence control of MERAN in corn (efficacy, Colby synergy)", "description": "as §1, §2, §3, §4"}, "[11]": {"tested_on": "Fallopia convolvulus (POLCO)", "experiment": "pre-emergence control of POLCO in corn (efficacy, Colby synergy)", "description": "as §1, §2, §5"}, "[12]": {"tested_on": "Persicaria lapathifolia (POLLA)", "experiment": "pre-emergence control of POLLA in corn (efficacy, Colby synergy)", "description": "as §1, §2, §3, §4"}, "[13]": {"tested_on": "Persicaria maculosa (POLPE)", "experiment": "pre-emergence control of POLPE in corn (efficacy, Colby synergy)", "description": "as §1, §2, §3, §4"}, "Senecio vulgaris (SENVU)": {"tested_on": "Senecio vulgaris (SENVU)", "experiment": "pre-emergence control of SENVU in corn (efficacy, Colby synergy)", "conditions": "bixlozone 375, pethoxamid 800, tank mix 375 + 800, premix 375 + 775 g/ha", "description": "as §1, §2, §5"}, "Setaria viridis (SETVI)": {"tested_on": "Setaria viridis (SETVI)", "experiment": "pre-emergence control of SETVI in corn (efficacy, Colby synergy)", "description": "as §1, §2, §3, §4"}, "[14]": {"conditions": "bixlozone 375, pethoxamid 300, mixtures 375 + 300 g/ha"}, "[15]": {"conditions": "bixlozone 375, pethoxamid 800, tank mix 375 + 800, premix 375 + 775 g/ha"}, "[16]": {"conditions": "bixlozone 375, pethoxamid 1200, mixtures 375 + 1200 g/ha"}},
  "data": [
    {"smiles": "CCOCCN(C(=O)CCl)C(=C(C)C)c1ccccc1", "note": "[pethoxamid]", "values": [
      {"measurement": "Efficacy", "setting": "[1]; [14]", "value": 42.5},
      {"measurement": "Efficacy", "setting": "[1]; [15]", "value": 38.9},
      {"measurement": "Efficacy", "setting": "[1]; [16]", "value": 56.3},
      {"measurement": "Efficacy", "setting": "[2]; [15]", "value": 50.4},
      {"measurement": "Efficacy", "setting": "[2]; [16]", "value": 57.5},
      {"measurement": "Efficacy", "setting": "[3]", "value": 99.3},
      {"measurement": "Efficacy", "setting": "[4]; [14]", "value": 35.7},
      {"measurement": "Efficacy", "setting": "[4]; [15]", "value": 66.6},
      {"measurement": "Efficacy", "setting": "[4]; [16]", "value": 72.2},
      {"measurement": "Efficacy", "setting": "[5]", "value": 0},
      {"measurement": "Efficacy", "setting": "[6]", "value": 39.6},
      {"measurement": "Efficacy", "setting": "[7]", "value": 82},
      {"measurement": "Efficacy", "setting": "[8]; [14]", "value": 48.4},
      {"measurement": "Efficacy", "setting": "[8]; [16]", "value": 85.5},
      {"measurement": "Efficacy", "setting": "Lamium purpureum (LAMPU)", "value": 62.5},
      {"measurement": "Efficacy", "setting": "[9]; [14]", "value": 90},
      {"measurement": "Efficacy", "setting": "[9]; [15]", "value": 100},
      {"measurement": "Efficacy", "setting": "[9]; [16]", "value": 77.5},
      {"measurement": "Efficacy", "setting": "[10]; [14]", "value": 36.3},
      {"measurement": "Efficacy", "setting": "[10]; [15]", "value": 16.9},
      {"measurement": "Efficacy", "setting": "[10]; [16]", "value": 48.6},
      {"measurement": "Efficacy", "setting": "[11]; [15]", "value": 1.3},
      {"measurement": "Efficacy", "setting": "[11]; [16]", "value": 12.1},
      {"measurement": "Efficacy", "setting": "[12]; [14]", "value": 42.2},
      {"measurement": "Efficacy", "setting": "[12]; [15]", "value": 49.3},
      {"measurement": "Efficacy", "setting": "[12]; [16]", "value": 87.8},
      {"measurement": "Efficacy", "setting": "[13]; [14]", "value": 45.5},
      {"measurement": "Efficacy", "setting": "[13]; [15]", "value": 61.8},
      {"measurement": "Efficacy", "setting": "[13]; [16]", "value": 62.5},
      {"measurement": "Efficacy", "setting": "Senecio vulgaris (SENVU)", "value": 13.8},
      {"measurement": "Efficacy", "setting": "Setaria viridis (SETVI); [14]", "value": 30},
      {"measurement": "Efficacy", "setting": "Setaria viridis (SETVI); [15]", "value": 81},
      {"measurement": "Efficacy", "setting": "Setaria viridis (SETVI); [16]", "value": 52.1}
    ]}
  ]
}
